Assay results: article PMC12336439 (Archiv Der Pharmazie, 2025)
Values joined by “and” are separate entries in the source; they are usually repeats but may differ in a detail not shown here. Equal values may be shown once. Read-outs that look alike come from different tables or passages of the source.

Assays:
[1] = biological target: T1, USP7cd (USP7 catalytic domain) (Homo sapiens, UniProt Q93009); assay: Ub-AMC enzyme activity assay, IC50 determination; assay type: biochemical; conditions: 10 nM USP7cd, 500 nM Ub-AMC, 24 h pre-incubation at 20°C
T1 construct: USP7 catalytic domain (USP7CD) (208‐560); made in house
T1 sequence (Q93009 with tags, fused parts or gaps): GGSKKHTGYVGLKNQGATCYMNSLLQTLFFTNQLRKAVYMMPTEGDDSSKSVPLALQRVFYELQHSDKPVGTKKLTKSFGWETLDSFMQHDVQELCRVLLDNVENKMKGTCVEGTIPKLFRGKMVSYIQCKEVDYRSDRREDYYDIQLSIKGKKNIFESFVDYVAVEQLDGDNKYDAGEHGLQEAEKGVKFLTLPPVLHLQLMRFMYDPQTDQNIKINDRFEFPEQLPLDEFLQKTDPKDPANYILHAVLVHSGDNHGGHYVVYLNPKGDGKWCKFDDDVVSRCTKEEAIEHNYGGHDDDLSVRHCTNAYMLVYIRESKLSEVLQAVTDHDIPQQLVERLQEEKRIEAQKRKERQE
Description: Therefore, USP7 was incubated for 24 h with ten different compound concentrations, and IC50 values were then obtained with a fluorescent DUB substrate (Ub‐AMC) (Figure 9A–F). The pre‐incubation times were chosen to account for the slow covalent binding kinetics observed in the previous experiments.
The cleavage activity of USP7cd in the presence or absence of inhibitors was measured using Ubiquitin‐Aminomethylcoumarin (Ub‐AMC) (Enzo Life Sciences GmbH, Lörrach, Germany) as a fluorogenic substrate. The fluorescence was monitored using the CLARIOstar plate reader (BMG Labtech GmbH, Ortenberg, Germany) at 25°C at 360 nm excitation and 460 nm emission wavelengths. […] Each measurement was performed at least twice in duplicate. […] Ub‐AMC was added to a final concentration of 500 nM, and the fluorescence was measured after 1 h. The normalized dose‐response semi‐logarithmic curves were fitted using OriginPro2021 and the four‐parameter logistic function.
Different concentrations of compounds were pre-incubated with USP7 for 24 h at 20 °C in a rotating shaker in 25 mM Tris pH 8.0, 150mM NaCl, 5 mM TCEP supplemented with 0.2 mg/mL bovine serum albumin (BSA). Fluorescence was measured after 1 h of the addition of Ub-AMC. The dose response semi-logarithmic curves were fitted using OriginPro2021 and the four-parameter logistic function.

[2] = biological target: T2, USP7 (Homo sapiens, UniProt Q93009); set-up: method as in PMID 40165995; conditions: 24 h incubation at 20°C, ratio 1:31.25; spectra reported previously; cited from earlier work
T2 construct: USP7 catalytic domain (USP7CD) (208‐560); made in house
T2 sequence (Q93009 with tags, fused parts or gaps): as above

[3] = biological target: T2, USP7; assay: Differential scanning fluorimetry (DSF), melting temperature shift of USP7; assay type: binding; conditions: 8 µM protein, 250 µM compound (1:31.25)
From the text: The influence of the synthesized compounds on the melting temperature (T m) of USP7 and its mutant USP7asoc (active site only cysteine) was investigated by DSF. USP7asoc only retains the catalytic Cys223 while all the other six cysteines are mutated to serine. DSF was selected for initial assessment since it is an efficient and rapid primary screening method readily available to our lab.
An important consideration when assessing covalent inhibitors is the time dependence of covalent target occupancy and thus potency, which is determined by the reaction kinetics of the covalent binding event. To allow for drawing conclusions on compounds with slower reaction kinetics, incubation times of 30 min, 4 h, and 24 h at 20°C were chosen for the DSF screen with USP7 (Table 1 and Figures 2 and 3). The threshold at which compounds were considered (de‐)stabilizers was defined at 0.5°C. In parallel, the intrinsic reactivity of a set of representative compounds was evaluated in a glutathione reactivity assay. […] Data obtained from the GSH reactivity studies are shown in Supporting Information S2: Table S2.1 and Figures S2.1–2.3.
The melting temperatures of USP7 and USP7asoc in the presence or absence of fragments were determined by DSF on a Qiagen Rotor‐Q Model‐5‐Plex HRM real‐time PCR instrument (Qiagen, Hilden, Germany). SYPRO Orange (Life Technologies Corporation, Eugene, OR, USA) was used as a fluorescent dye at a final concentration of 5x. The protein concentration was 8 µM, and the final compound concentration was 250 µM, corresponding to a protein‐to‐compound ratio of 1:31.25. All compounds were dissolved in dimethyl sulfoxide (DMSO) and the proteins in Tris buffer (25 mM Tris pH 8.0, 150 mM NaCl, 5 mM TCEP, 5% (v/v) DMSO). All measurements were performed after 30 min, 4 h, and 24 h of incubation and at least in triplicate. DSF experiments were carried out with a constant heating rate of 270°C/h. The temperature was ramped from 28°C to 60°C–70°C with excitation and emission filters set at 470 nm and 610 nm, respectively. The melting temperatures (T m) of USP7 and USP7asoc were determined from the maxima of the first derivatives of the melting curves in OriginPro2020 (OriginLab, Northampton, MA, USA). The ∆T m was calculated by subtraction of the T m of the protein sample with pure DMSO from the T m of the protein sample mixed with compound. Error propagation was used to average multiple runs for a compound. A compound was considered to be a hit if the shift in the ∆T m was at least 0.50°C [55].

[4] = biological target: T3, USP7asoc (active site only cysteine) (Homo sapiens, UniProt Q93009, C300S/C315S/C334S/C478S/C488S/C510S); assay: Differential scanning fluorimetry (DSF), melting temperature shift of USP7asoc mutant; assay type: binding; conditions: 8 µM protein, 250 µM compound (1:31.25)
T3 construct: (208‐560, C300/315/334/448/478/510S); made in house
T3 sequence (Q93009 with tags, fused parts or gaps C300S/C315S/C334S/C478S/C488S/C510S): as the sequence (Q93009 with tags, fused parts or gaps) above, with C96S, C111S, C130S, C274S, C284S, C306S counted along it
Description: USP7asoc only retains the catalytic Cys223 while all the other six cysteines are mutated to serine. DSF was selected for initial assessment since it is an efficient and rapid primary screening method readily available to our lab. […] An important consideration when assessing covalent inhibitors is the time dependence of covalent target occupancy and thus potency, which is determined by the reaction kinetics of the covalent binding event. To allow for drawing conclusions on compounds with slower reaction kinetics, incubation times of 30 min, 4 h, and 24 h at 20°C were chosen for the DSF screen with USP7 (Table 1 and Figures 2 and 3). The threshold at which compounds were considered (de‐)stabilizers was defined at 0.5°C. In parallel, the intrinsic reactivity of a set of representative compounds was evaluated in a glutathione reactivity assay. […] The expression and purification of USP7 catalytic domain (USP7CD) (208‐560) and USP7asoc (active site only cysteine) by using a pET24a(+)_HLT_USP7 construct were performed as previously described. […] For the USP7asoc, six of the seven cysteines are mutated to serines (208‐560, C300/315/334/448/478/510S). All utilized protein sequences are depicted in Supporting Information S2: Table S.3.1. The melting temperatures of USP7 and USP7asoc in the presence or absence of fragments were determined by DSF on a Qiagen Rotor‐Q Model‐5‐Plex HRM real‐time PCR instrument (Qiagen, Hilden, Germany). SYPRO Orange (Life Technologies Corporation, Eugene, OR, USA) was used as a fluorescent dye at a final concentration of 5x. The protein concentration was 8 µM, and the final compound concentration was 250 µM, corresponding to a protein‐to‐compound ratio of 1:31.25. All compounds were dissolved in dimethyl sulfoxide (DMSO) and the proteins in Tris buffer (25 mM Tris pH 8.0, 150 mM NaCl, 5 mM TCEP, 5% (v/v) DMSO). All measurements were performed after 30 min, 4 h, and 24 h of incubation and at least in triplicate. DSF experiments were carried out with a constant heating rate of 270°C/h. The temperature was ramped from 28°C to 60°C–70°C with excitation and emission filters set at 470 nm and 610 nm, respectively. The melting temperatures (T m) of USP7 and USP7asoc were determined from the maxima of the first derivatives of the melting curves in OriginPro2020 (OriginLab, Northampton, MA, USA). The ∆T m was calculated by subtraction of the T m of the protein sample with pure DMSO from the T m of the protein sample mixed with compound. Error propagation was used to average multiple runs for a compound. A compound was considered to be a hit if the shift in the ∆T m was at least 0.50°C [55].

[5] = biological target: T4, USP7asoc (Homo sapiens, UniProt Q93009, C300S/C315S/C334S/C478S/C488S/C510S); set-up: method as in PMID 40165995; conditions: 24 h incubation at 20°C, ratio 1:31.25; spectra reported previously; cited from earlier work
T4 construct: (208‐560, C300/315/334/448/478/510S); made in house
T4 sequence (Q93009 with tags, fused parts or gaps C300S/C315S/C334S/C478S/C488S/C510S): as the sequence (Q93009 with tags, fused parts or gaps) above, with C96S, C111S, C130S, C274S, C284S, C306S counted along it

[6] = biological target: T2, USP7; set-up: method as in PMID 40165995; conditions: hit from earlier screen of covalent kinase inhibitor library; cited from earlier work
[7] = biological target: T4, USP7asoc; assay: Intact protein MS (UHPLC-ESI-MS), covalent modification of USP7asoc; assay type: binding; conditions: 24 h incubation at 20°C, protein-to-compound ratio 1:31.25
Description: The DSF results described above were validated by UHPLC‐ESI‐MS to verify possible covalent binding through a corresponding mass shift. Intact protein MS is an important screening method in irreversible‐covalent hit identification and is especially suitable for covalent fragment‐based drug discovery (FBDD). It allows for the identification of covalent binders by detecting covalent protein‐compound adducts, thus making use of the stability of the covalent bond. USP7 was prepared in Tris buffer (25 mM Tris pH 8.0, 150 mM NaCl, 5 mM TCEP) with a protein‐to‐compound ratio of 1:31.25 and 5% (v/v) DMSO. The protein‐compound mixtures were all incubated at 20°C for 24 h on a rotating shaker. The analysis of intact protein mass was carried out using UHPLC‐ESI‐MS measurements, with data acquisition and data analysis as previously described.

[8] = biological target: T2, USP7; assay: Intact protein MS (UHPLC-ESI-MS), covalent modification of USP7; assay type: binding; conditions: 24 h incubation at 20°C, protein-to-compound ratio 1:31.25
Description: The DSF results described above were validated by UHPLC‐ESI‐MS to verify possible covalent binding through a corresponding mass shift. Intact protein MS is an important screening method in irreversible‐covalent hit identification and is especially suitable for covalent fragment‐based drug discovery (FBDD). It allows for the identification of covalent binders by detecting covalent protein‐compound adducts, thus making use of the stability of the covalent bond.
USP7 was prepared in Tris buffer (25 mM Tris pH 8.0, 150 mM NaCl, 5 mM TCEP) with a protein‐to‐compound ratio of 1:31.25 and 5% (v/v) DMSO. The protein‐compound mixtures were all incubated at 20°C for 24 h on a rotating shaker. The analysis of intact protein mass was carried out using UHPLC‐ESI‐MS measurements, with data acquisition and data analysis as previously described.

SMILES	IC50 ([1]; read-out: IC50 USP7cd)	IC50 ([1]; supplement table, read-out: Biological Activity (IC50)) [µM]	protein species in deconvoluted mass spectrum of USP7 [2]	∆T m ± SD USP7 ([3]; 30 min incubation at 20°C)	∆T m ± SD USP7 ([3]; 4 h incubation at 20°C)	∆T m ± SD USP7asoc ([4]; 30 min incubation at 20°C)	∆T m ± SD USP7asoc ([4]; 4 h incubation at 20°C)	protein species in deconvoluted mass spectrum of USP7asoc [5]	temperature decrease with USP7 in DSF [6]	∆T m ± SD USP7 ([3]; 24 h incubation at 20°C)	∆T m ± SD USP7asoc ([4]; 24 h incubation at 20°C)	protein species in deconvoluted mass spectrum of USP7asoc [7]	protein species in deconvoluted mass spectrum of USP7 [8]
Cn1cc(-c2cccc3cnc(Nc4nc(F)ccc4[N+](=O)[O-])cc23)cn1 [7a, N‐(6‐Fluoro‐3‐nitropyridin‐2‐yl)‐5‐(1‐methyl‐1H‐pyrazol‐4‐yl)isoquinolin‐3‐amine]	43.3 µM and 43 µM	48.2 ± 6.89	mono‐arylated protein species as the main peak	–0.13 ± 0.08 °C	–0.23 ± 0.06 °C	–0.10 ± 0.09 °C	–0.25 ± 0.09 °C	single covalent modification as the main peak	–4 °C	–	–	–	–
Cn1cc(-c2cccc3cnc(Nc4nc(Cl)ccc4[N+](=O)[O-])cc23)cn1 [8a, N‐(6‐Chloro‐3‐nitropyridin‐2‐yl)‐5‐(1‐methyl‐1H‐pyrazol‐4‐yl)isoquinolin‐3‐amine]	–	–	unmodified and mono‐arylated protein species were visible with nearly the same intensity	0.20 ± 0.09 °C	0.45 ± 0 °C	0.10 ± 0.27 °C	0.10 ± 0.09 °C	unmodified protein species as the main peak	–	0.20 ± 0.09 °C	0.10 ± 0.09 °C	–	–
O=[N+]([O-])c1ccc(Cl)nc1Nc1cc2c(-c3ccc4ccccc4c3)cccc2cn1 [8g, N‐(6‐Chloro‐3‐nitropyridin‐2‐yl)‐5‐(naphthalen‐2‐yl)isoquinolin‐3‐amine]	–	–	–	0.25 ± 0.12 °C	0.30 ± 0 °C	0.63 °C and 0.63 ± 0.07 °C	0.38 ± 0.08 °C	–	–	0.25 ± 0.09 °C	0.40 ± 0.17 °C	only unmodified USP7 and USP7asoc were detected	only unmodified USP7 and USP7asoc were detected
O=[N+]([O-])c1ccc(Cl)nc1Nc1cc2c(-c3ccc(-c4cccnc4)cc3)cccc2cn1 [8h, N‐(6‐Chloro‐3‐nitropyridin‐2‐yl)‐5‐[4‐(pyridin‐3‐yl)phenyl]isoquinolin‐3‐amine]	–	–	–	–0.25 ± 0.09 °C	0.00 ± 0 °C	0.15 ± 0 °C	0.35 ± 0.09 °C	–	–	0.05 ± 0.09 °C	0.28 ± 0.04 °C	unmodified USP7 and USP7asoc as the main peak	unmodified USP7 and USP7asoc as the main peak
O=[N+]([O-])c1ccc(Cl)nc1Nc1cc2c(-c3ccc(-c4ccncc4)cc3)cccc2cn1 [8i, N‐(6‐Chloro‐3‐nitropyridin‐2‐yl)‐5‐[4‐(pyridin‐4‐yl)phenyl]isoquinolin‐3‐amine]	–	–	–	0.05 ± 0.09 °C	–	0.10 ± 0.17 °C	–0.15 ± 0.15 °C	–	–	–0.03 ± 0.11 °C	–0.15 ± 0.12 °C	unmodified USP7 and USP7asoc as the main peak	unmodified USP7 and USP7asoc as the main peak
